{"source": "paper PMC6769468", "about": "“Endogenous Neuropeptide Nocistatin Is a Direct Agonist of Acid-Sensing Ion Channels (ASIC1, ASIC2 and ASIC3)” (Biomolecules, 2019)", "key": {"[1]": {"target": "T1, rat ASIC2a (Rattus norvegicus, UniProt Q62962)", "T1 construct": "expressed in transfected cells; host or cells: Xenopus laevis oocytes (injected)", "T1 sequence (Q62962 1-512)": "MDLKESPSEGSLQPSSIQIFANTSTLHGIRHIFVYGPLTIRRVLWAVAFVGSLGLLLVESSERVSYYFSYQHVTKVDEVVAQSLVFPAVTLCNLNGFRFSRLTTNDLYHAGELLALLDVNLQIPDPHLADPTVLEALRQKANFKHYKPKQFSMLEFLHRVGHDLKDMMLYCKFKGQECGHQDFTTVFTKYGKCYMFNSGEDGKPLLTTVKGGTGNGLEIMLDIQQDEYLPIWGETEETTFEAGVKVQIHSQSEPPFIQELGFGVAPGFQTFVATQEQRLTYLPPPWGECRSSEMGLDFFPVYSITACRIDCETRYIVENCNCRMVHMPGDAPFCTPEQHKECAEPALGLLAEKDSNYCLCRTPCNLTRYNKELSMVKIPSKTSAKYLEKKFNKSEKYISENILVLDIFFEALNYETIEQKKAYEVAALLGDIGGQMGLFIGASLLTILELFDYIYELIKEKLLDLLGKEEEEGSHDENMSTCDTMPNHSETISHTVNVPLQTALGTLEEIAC", "experiment": "Whole-cell current activation, rat ASIC2a in X. laevis oocytes", "type": "cell-based", "procedure": "(§1) Oocytes expressed rASIC1a, rASIC1b, rASIC2a, and rASIC3 homomeric channels were prepared as described. Injected oocytes were kept for two–three days at 19 °C and then for up to seven days at 15 °C in ND-96 medium supplemented with gentamycin (50 μg·mL^−1) and containing (in mM): 96 NaCl, 2 KCl, 1.8 CaCl2, 1 MgCl2, and 10 HEPES titrated to pH 7.4 with NaOH. Electrophysiological recordings were performed using the GeneClamp500 amplifier (Axon Instruments, Inverurie, UK) at a holding potential of -50 mV. The data were filtered at 20 Hz and digitized at 100 Hz using the L780 AD converter (L-Card, Moscow, Russia). Microelectrodes were filled with 3 M KCl. The external bath solution was ND-96 with pH adjusted to 7.4/7.8 (10 mM HEPES) /8.5 (10 mM Tris). Nocistatin containing solutions were freshly prepared and buffered each experimental day in ND-96 bath solution (pH 7.4/7.8/8.5). Proton-activated currents through ASIC channels were elicited by application of ND-96, in which 10 mM of HEPES was substituted with 10 mM MES at pH 5.5/ 10 mM acetic acid at pH 4.5. The whole-cell recording was performed if a response to the control pH stimulus was stable in at least two replicates. Nocistatin-activated currents were elicited by application of nocistatin containing solutions with various concentrations of the peptide.\nExtracellular solutions were applied using a computer-controlled valve system with a flow rate of 1 mL/min. The oocyte chamber volume was 80 µL. The validity of the application system for studying ASIC channels expressed in oocytes was confirmed in experiments by application of a Cl-free solution (containing (in mM): 130 NMDG, 1 MgGluc2, 2 KGluc, 5 HEPES) (pH 7.4). […]\n(§2) All data are presented as mean ± SEM. The significance of normalized data differences was determined with a non-parametric Kruskal-Wallis ANOVA test with the significance level * p < 0.05 and ** p < 0.01; ns, non-significant."}, "[2]": {"test_system": "uninjected oocytes", "experiment": "Application to uninjected oocytes (negative control)", "type": "cell-based, Xenopus laevis", "settings": "1 mM rNS", "procedure": "as §1, with “peptide. […]” for “peptide.”"}, "[3]": {"target": "T2, rat ASIC1b (Rattus norvegicus, UniProt P55926)", "T2 construct": "expressed in transfected cells; host or cells: Xenopus laevis oocytes (injected)", "T2 sequence (P55926 1-559 isoform P55926-3)": "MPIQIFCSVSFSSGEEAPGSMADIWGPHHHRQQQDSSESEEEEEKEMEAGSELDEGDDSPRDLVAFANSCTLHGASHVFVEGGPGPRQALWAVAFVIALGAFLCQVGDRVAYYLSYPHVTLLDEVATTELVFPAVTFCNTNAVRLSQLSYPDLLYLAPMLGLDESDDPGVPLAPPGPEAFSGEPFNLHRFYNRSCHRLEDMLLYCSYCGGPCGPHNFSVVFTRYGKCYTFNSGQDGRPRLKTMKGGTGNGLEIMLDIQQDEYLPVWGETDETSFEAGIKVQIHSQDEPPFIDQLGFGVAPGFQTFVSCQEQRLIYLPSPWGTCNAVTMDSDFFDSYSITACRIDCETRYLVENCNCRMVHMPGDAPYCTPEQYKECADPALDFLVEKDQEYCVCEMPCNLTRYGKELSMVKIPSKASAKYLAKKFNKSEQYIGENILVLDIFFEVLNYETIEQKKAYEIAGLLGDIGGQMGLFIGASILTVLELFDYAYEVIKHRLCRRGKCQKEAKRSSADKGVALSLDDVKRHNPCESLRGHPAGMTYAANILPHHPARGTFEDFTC", "experiment": "Whole-cell current activation, rat ASIC1b in X. laevis oocytes", "type": "cell-based", "procedure": "as §1\nExtracellular solutions were applied using a computer-controlled valve system with a flow rate of 1 mL/min. The oocyte chamber volume was 80 µL. The validity of the application system for studying ASIC channels expressed in oocytes was confirmed in experiments by application of a Cl-free solution (containing (in mM): 130 NMDG, 1 MgGluc2, 2 KGluc, 5 HEPES) (pH 7.4). Fast application of proton/peptide-activating solution was performed at a flow rate of 1 mL/sec (the change of the bath solution occurred within 100 ms), followed by PC controlled flow stopping (from 5 to 15 s).\n(d) The time course of curves’ decay was fitted using a mono-exponential equation: F4(x) = A1*e^(-x/τdes) + A0, where F4(x) is the current amplitude at the time point x, A1 is the maximal current amplitude, A0 is its steady-state value and τdes is the […].\nas §2"}, "[4]": {"test_system": "NIPSNAP1", "settings": "ref [32]; cited from earlier work", "source_text": "(§3) The nocistatin in mammalian is expressed as a precursor protein coding three neuropeptides (nocistatin, nociceptin, and Orphanin FQ2). […] Nocistatin is well represented in different parts of the brain and spinal cord. […] Nocistatin was studied in animal models as a prospective molecule together with opi ..."}, "[5]": {"test_system": "mice", "settings": "ref [28]; cited from earlier work", "source_text": "as §3"}, "[6]": {"test_system": "canonical transient receptor potential cation (TRPC) channels", "settings": "via unidentified G-coupled receptor(s), Gαq/11-phospholipase C-protein kinase C pathway; ref [31]; cited from earlier work", "source_text": "as §3"}, "[7]": {"test_system": "mouse", "settings": "cited from earlier work", "source_text": "as §3"}, "[8]": {"settings": "ref [27]; cited from earlier work", "source_text": "as §3"}, "[9]": {"settings": "1 mM rNS, conditioning pH 7.4, mean ± S.E. from 4–7 measurements"}}, "note": "Ends that are not written are not given here.", "data": [{"sequence": "MPRVRSVVQARDAEPEADAEPVADEADEVEQKQLQ [rNS]", "values": [{"measurement": "tmax less than for acidification by", "setting": "[1]; 1 mM rNS vs acidification, faster", "result": "~ 37%"}, {"measurement": "Maximal amplitude of peptide activation versus response to standard pH drop", "setting": "[1]; 1 mM rNS vs pH drop 7.4 to 5.5", "result": "eight times higher"}, {"measurement": "τdes (desensitization time constant)", "setting": "[1]; [9]", "result": "2.22 ± 0.16", "unit": "s"}, {"measurement": "Effect on uninjected oocytes", "setting": "[2]", "result": "did not produce any effects on the uninjected oocytes"}, {"measurement": "Acurrent, nocistatin versus protons", "setting": "[3]; 1 mM rNS vs pH drop 7.4–5.5", "result": "did not differ between protons and nocistatin"}, {"measurement": "Desensitization time, difference between stimuli", "setting": "[3]; 1 mM rNS vs pH drop 7.4–5.5", "result": "No differences were observed in desensitization time"}, {"measurement": "tmax, nocistatin versus protons", "setting": "[3]; 1 mM rNS vs pH drop 7.4–5.5", "result": "no differences"}, {"measurement": "τdes (desensitization time constant)", "setting": "[3]; [9]", "result": "0.5 ± 0.06", "unit": "s"}, {"measurement": "Binding to NIPSNAP1", "setting": "[4]", "result": "nocistatin binding proteins"}, {"measurement": "Effect in elevated plus-maze test", "setting": "[5]", "result": "produced anxiogenic-like actions"}, {"measurement": "Effect on TRPC channels", "setting": "[6]", "result": "opening of canonical transient receptor potential cation (TRPC) channels"}, {"measurement": "Effect on nociceptin-caused allodynia and thermal hyperalgesia", "setting": "[7]; doses of 0.5–500 pg per mouse, ref [29]", "result": "eliminated allodynia and thermal hyperalgesia effects"}, {"measurement": "Effect in algogenic-induced nociceptive flexion test", "setting": "[7]; i.pl. 0.01–1 pmol per mouse, ref [30]", "result": "induced pronociceptive responses"}, {"measurement": "Effect on scopolamine-induced impairment of learning and memory", "setting": "[8]", "result": "prevented the disruption of learning and memory processes"}]}]}
